The values below come from patent US20020150626A1, “Lipid-protein-sugar particles for delivery of nucleic acids” (priority 2000, published 2002).

Read-outs that look alike come from different tables or passages of the source.

The nature of data set [1]: Median lethal dose of bupivacaine (literature). In kind it is in vivo. As to conditions: in a 350 g rat.
The conditions of data set [2]: adult rats; Kohane et al. 1998; cited from earlier work.
The conditions of data set [3]: rat, in vivo.
Protocol: The presence of functional deficits in the un-injected extremity was used as a measure of the degree of systemically distributed local anesthetic (i.e., toxicity). Thermal latency (the length of time that a rat would leave his paw on the hotplate) was measured in the un-injected leg at predetermined intervals, in rats who received 10% bupivacaine LPSPs or 50% bupivacaine microspheres (FIG. 4).

In the case of `CCCCN1CCCCC1C(=O)Nc1c(C)cccc1C` (stereo not drawn) [bupivacaine in solution, bupivacaine], the median lethal dose is 10.5 mg in data set [1] and 30 ± 5 mg/kg in data set [2]. Besides, the “signs of systemic toxicity (contralateral thermal latency)” value in data set [3] was “one of those rats had severe signs of systemic toxicity”.
